Read-outs that look alike come from different tables or passages of the source.
Target: T1, SFRP-1 (Homo sapiens, UniProt Q8N474)
T1 sequence (Q8N474 32-314): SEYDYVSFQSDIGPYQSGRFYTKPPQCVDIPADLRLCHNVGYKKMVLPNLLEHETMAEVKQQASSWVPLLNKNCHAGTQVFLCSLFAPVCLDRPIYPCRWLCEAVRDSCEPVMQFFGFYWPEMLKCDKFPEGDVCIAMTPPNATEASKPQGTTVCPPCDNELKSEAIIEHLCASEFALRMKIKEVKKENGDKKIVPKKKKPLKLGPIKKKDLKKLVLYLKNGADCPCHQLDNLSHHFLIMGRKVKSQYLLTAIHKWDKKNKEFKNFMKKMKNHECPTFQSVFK
Assay: Cell-based assay for in vitro measurement of SFRP-1/SARP2 antagonist activity (U2OS cells co-transfected with 16x TCF-tk-Luciferase reporter, Wnt and hSFRP-1);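 also: U2OS cells co-transfected with a TCF-tk luciferase reporter, a Wnt vector, hSFRP-1 or empty vector and CMV-βgal, luciferase luminescence read in cell lysates alongside βgal activity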
Details: for fold induction at 15 µM: U2OS

[1] = read-out: Fold Induction with SFRP-1, Conc 15 μM, with SFRP-1, fold induction over SFRP-1 control, single dose
[2] = read-out: Fold Induction without SFRP-1, Conc 15 μM, without SFRP-1, single dose
[3] = Conc 15 μM, with SFRP-1, fold induction over SFRP-1 control, single dose
[4] = Conc 15 μM, without SFRP-1, single dose

SMILES | fold induction at 15 µM [1] | fold induction at 15 µM [2] | further results
Cc1ccc(S(=O)(=O)c2ccccc2)cc1S(=O)(=O)NCC(O)c1ccccc1 (stereo not shown) [Example 386, N-(2-hydroxy-2-phenylethyl)-2-methyl-5-(phenylsulfonyl)benzenesulfonamide] | 1.8 | 1 | 
CCc1ccc(S(=O)(=O)c2ccc(F)cc2)cc1S(=O)(=O)NCC(O)c1ccccc1 (stereo not shown) [Example 388, 2-ethyl-5-[(4-fluorophenyl)sulfonyl]-N-(2-hydroxy-2-phenylethyl)benzenesulfonamide] | 2.2 | 1.1 | 
Cc1cc(C)c(S(=O)(=O)c2ccccc2)cc1S(=O)(=O)NCC(O)c1ccccc1 (stereo not shown) [Example 389, N-(2-hydroxy-2-phenylethyl)-2,4-dimethyl-5-(phenylsulfonyl)benzenesulfonamide] | 1.5 | 1.1 | 
Cc1ccc(S(=O)(=O)c2ccccc2)cc1S(=O)(=O)NC(C)C(O)c1ccccc1 (stereo not drawn) [Example 390, trans-N-(2-hydroxy-1-methyl-2-phenylethyl)-2-methyl-5-(phenylsulfonyl)benzenesulfonamide] |  |  | Fold Induction with SFRP-1 [3]: 2.2 fold; Fold Induction without SFRP-1 [4]: 1.1 fold
Cc1ccc(S(=O)(=O)c2ccc(F)cc2)cc1S(=O)(=O)NC(C)C(O)c1ccccc1 (stereo not drawn) [Example 391, 5-[(4-fluorophenyl)sulfonyl]-N-[trans-2-hydroxy-1-methyl-2-phenylethyl]-2-methylbenzenesulfonamide] |  |  | Fold Induction with SFRP-1 [3]: 1.8 fold; Fold Induction without SFRP-1 [4]: 1.1 fold
Cc1cc(C)c(S(=O)(=O)c2ccccc2)cc1S(=O)(=O)NC(C)C(O)c1ccccc1 (stereo not drawn) [Example 393, N-[(trans)-2-hydroxy-1-methyl-2-phenylethyl]-2,4-dimethyl-5-(phenylsulfonyl)benzenesulfonamide] |  |  | Fold Induction with SFRP-1 (Conc 7.5 μM, with SFRP-1, fold induction over SFRP-1 control, single dose): 1.2 fold; Fold Induction without SFRP-1 (Conc 7.5 μM, without SFRP-1, single dose): 1 fold
Cc1ccc(S(=O)(=O)c2ccccc2)cc1S(=O)(=O)NC(C)(C)C [Example 395, N-(tert-butyl)-2-methyl-5-(phenylsulfonyl)benzenesulfonamide] | 1.2 | 1 | 
Cc1ccc(S(=O)(=O)c2ccccc2)cc1S(=O)(=O)NCC(C)(C)C [Example 396, N-(2,2-dimethylpropyl)-2-methyl-5-(phenylsulfonyl)benzenesulfonamide] | 1.4 | 1 | 
CCC(CC)NS(=O)(=O)c1cc(S(=O)(=O)c2ccccc2)ccc1C [Example 397, N-(1-ethylpropyl)-2-methyl-5-(phenylsulfonyl)benzenesulfonamide] | 1.2 | 1.1 | 

Further lines, with some results ahead:

fold induction at 15 µM [1] | fold induction at 15 µM [2] | SMILES | further results
2.1 | 0.9 | Cc1ccc(S(=O)(=O)c2ccc(F)cc2)cc1S(=O)(=O)NCC1CCOCC1 [Example 383, 5-[(4-fluorophenyl)sulfonyl]-2-methyl-N-(tetrahydro-2H-pyran-4-ylmethyl)benzenesulfonamide] | 
2.6 | 0.8 | CCc1ccc(S(=O)(=O)c2ccc(F)cc2)cc1S(=O)(=O)NCC1CCOCC1 [Example 384, 2-ethyl-5-[(4-fluorophenyl)sulfonyl]-N-(tetrahydro-2H-pyran-4-ylmethyl)benzenesulfonamide] | 
2.7 | 1 | Cc1cc(C)c(S(=O)(=O)c2ccccc2)cc1S(=O)(=O)NCC1CCOCC1 [Example 385, 2,4-dimethyl-5-(phenylsulfonyl)-N-(tetrahydro-2H-pyran-4-ylmethyl)benzenesulfonamide] | 
1.7 | 1.4 | Cc1ccc(S(=O)(=O)c2ccc(F)cc2)cc1S(=O)(=O)NCC(O)c1ccccc1 (stereo not shown) [Example 387, 5-[(4-fluorophenyl)sulfonyl]-N-(2-hydroxy-2-phenylethyl)-2-methylbenzenesulfonamide] | 
1.5 | 1 | CCCNS(=O)(=O)c1cc(S(=O)(=O)c2ccccc2)ccc1C [Example 394, 2-methyl-5-(phenylsulfonyl)-N-propylbenzenesulfonamide] | 
